“Also recorded” adds a separate entry of the source. Read-outs that look alike come from different tables or passages of the source.
How the values were obtained:
AKR1B10 [1] = biological target: T1, AKR1B10 (Homo sapiens, UniProt O60218); details: ND = no detectable activity or less than 32 nmol/min/mg; cited from earlier work
AKR1B1 [2] = biological target: T2, AKR1B1 (Homo sapiens, UniProt P15121); details: ND = no detectable activity or less than 32 nmol/min/mg; cited from earlier work
SW480 cells = assay: Cytotoxicity assay (cell survival rate, MTT); type: cell-based; details: for Cytotoxicity of AKR1Bs substrate (cell survival rate): substrate alone, 2DG for 72 hours
Protocol: (§1) HepG2 cells, SKOV3 cells, HCT116 cells and CaCo2 cells were cultured in DMEM medium, SW480 cells in 1640 medium, and HT29 cells in McCoy’s 5A medium. […] In cytotoxicity assays, cells were seeded at 1 × 10^5 cells/well in 96 well plates with full medium. In GSH assay and Western blot analysis, cells were seeded at 3× 10^6 cells/well in 6 well plates. The AKR1Bs substrates’ cytotoxicity was assessed by cell survival rate using MTT assay. After the cells were treated with the substrates for the length of time indicated, MTT was added to a final concentration of 0.5 mg/ml in each well of a 96-well plate, and the plates were incubated at 37° C. for 4 hour. Then DMSO was added to dissolve the formazan product, the amount of which is proportional to the number of live cells. The absorbance of dissolved dye was measured at 540 nm using an automatic microplate reader.

HT29 cells = assay: Cytotoxicity assay (cell survival rate, MTT); type: cell-based; details: for Cytotoxicity of AKR1Bs substrate (cell survival rate): substrate alone, 2DG for 72 hours
Protocol: as §1

AKR1B10 [3] = biological target: T1, AKR1B10; assay: Enzyme activity assay (NADPH oxidation), purified AKR1B10; type: biochemical; details: 20 mM substrate, pH 7.0, 30° C.
Protocol: (§2) Assay of AKR1B1 and AKR1B10 enzymes activities were conducted in 1 ml of the reaction mixture containing 135 mM sodium phosphate buffer (pH 6.2 for AKR1B1 or pH 7.0 for AKR1B10), 0.2 mM NADPH, 0.3 M ammonium sulfate, 2 µg purified protein and 20 mM of their substrate as indicated. The reaction mix was incubated at 30° C. for 30 minutes (min). Protein-free blank controls were included. The decrease of NADPH was monitored by spectrophotometer at 340 nm. Enzyme activity was calculated as the amount of NADPH oxidized/min/mg of protein (Shen Y et al., Chem Biol Interact. 2011, 191(1-3): 192-198).

HepG2 tumor xenograft = details: tail vein, daily for 21 days
Protocol: Six-week-old male BALB/C nude mice were purchased from the Laboratory Animal Unit of the University of Hong Kong. Mice were allowed to acclimate to laboratory conditions for 1 week before cancer cells injection. […] Treatment was initiated when the tumor grew to about 200±100 mm3. […] Mice were randomized and allocated to different groups. They received daily tail vein injection for 3 weeks of one of the following: glyceraldehyde (500 mg/kg body weight); diacetyl (80 mg/kg body weight); or normal saline. Mice were weighted and the sizes of the tumors were measured with calipers every 3 days. Tumor volumes were calculated with the formula: length×width2/2. Animals were humanely killed at the end of the experiment and their tumors were weighed.

[4] = Protocol: ICR mice (18-22 g) were acquired from the Laboratory Animal Services Centre, The Chinese University of Hong Kong. These animals were housed in an animal room with 12 h of day and dark cycles, and the temperature maintained at around 25° C. There were 4 male and 4 female in each treatment and control group. They were treated with either diacetyl or glyceraldehyde. Diacetyl and glyceraldehyde were dissolved with saline and administered to the mice by intravenous injection with the amount indicated. […] Mortality was recorded daily for the calculation of […] (LD50). All surviving animals were euthanized with diethyl-ether at the end of the experiment.
CaCo2 cells = assay: Cytotoxicity assay (cell survival rate, MTT); type: cell-based; details: for Cytotoxicity of AKR1Bs substrate (cell survival rate): substrate alone, 2DG for 72 hours
Protocol: (§3) HepG2 cells, SKOV3 cells, HCT116 cells and CaCo2 cells were cultured in DMEM medium, SW480 cells in 1640 medium, and HT29 cells in McCoy’s 5A medium. All cell culture media were supplemented with 10% FBS, 1% PSN, and cells were cultured in a humidified incubator containing 5% CO2 at 37° C. In cytotoxicity assays, cells were seeded at 1 × 10^5 cells/well in 96 well plates with full medium. In GSH assay and Western blot analysis, cells were seeded at 3× 10^6 cells/well in 6 well plates.
(§4) The AKR1Bs substrates’ cytotoxicity was assessed by cell survival rate using MTT assay. After the cells were treated with the substrates for the length of time indicated, MTT was added to a final concentration of 0.5 mg/ml in each well of a 96-well plate, and the plates were incubated at 37° C. for 4 hour. Then DMSO was added to dissolve the formazan product, the amount of which is proportional to the number of live cells. The absorbance of dissolved dye was measured at 540 nm using an automatic microplate reader.

HepG2 cells = assay: Cytotoxicity assay (cell survival rate, MTT); type: cell-based; details: for Cytotoxicity of AKR1Bs substrate (cell survival rate): substrate alone, 2DG for 72 hours
Protocol: as §3, §4

HCT116 cells = assay: Cytotoxicity assay (cell survival rate, MTT); type: cell-based; details: for Cytotoxicity of AKR1Bs substrate (cell survival rate): substrate alone, 2DG for 72 hours
Protocol: as §3, §4

SKOV3 cells = assay: Cytotoxicity assay (cell survival rate, MTT); type: cell-based; details: for Cytotoxicity of AKR1Bs substrate (cell survival rate): substrate alone, 2DG for 72 hours
Protocol: as §3, §4

AKR1B1 [5] = biological target: T2, AKR1B1; assay: Enzyme activity assay (NADPH oxidation), purified AKR1B1; type: biochemical; details: 20 mM substrate, pH 6.2, 30° C.
Protocol: as §2

AKR1B10 [6] = assay: Western blot of AKR1B10 protein level in treated cells; type: cell-based, human
Protocol: as §3
(§5) Cells were lysed on ice with the protein extraction reagent. Total protein (30 µg) per sample were loaded onto 10% SDS-polyacrylamide gels and separated at 75V, and then electrotransferred to polyvinylidene difluoride (PVDF) membranes overnight at 15 V. Membranes were then soaked in 5% nonfat milk in TBS at room temperature for 1 hour and then incubated with rabbit anti-AKR1B1 antibodies (1:3000) or rabbit anti-AKR1B10 antibodies (1:3000) at room temperature for 2 hours. After being washed, the membranes were incubated in HRP-conjugated goat anti-rabbit or goat anti-mouse IgG secondary antibodies (1:5000) for 1 hour at room temperature, followed by washing and incubation with ECL reagents for 1 min. β-actin monoclonal mouse antibodies (1:5000) was used as reference to assess the relative amounts of proteins loaded per lane.

AKR1B1 [7] = assay: Western blot of AKR1B1 protein level in treated cells; type: cell-based, human
Protocol: as §3, §5

[8] = ICR mice, intravenous injection daily for 14 days
[9] = pretreated 24 hours before addition of 2DG
[10] = BSO with 1.25/0.625 mM substrate, NAC with 2.5/1.25 mM substrate
[11] = BSO (0.3 mM) with 1.25/0.625 mM substrate, NAC with 2.5/1.25 mM substrate

T1 sequence (O60218 whole entry): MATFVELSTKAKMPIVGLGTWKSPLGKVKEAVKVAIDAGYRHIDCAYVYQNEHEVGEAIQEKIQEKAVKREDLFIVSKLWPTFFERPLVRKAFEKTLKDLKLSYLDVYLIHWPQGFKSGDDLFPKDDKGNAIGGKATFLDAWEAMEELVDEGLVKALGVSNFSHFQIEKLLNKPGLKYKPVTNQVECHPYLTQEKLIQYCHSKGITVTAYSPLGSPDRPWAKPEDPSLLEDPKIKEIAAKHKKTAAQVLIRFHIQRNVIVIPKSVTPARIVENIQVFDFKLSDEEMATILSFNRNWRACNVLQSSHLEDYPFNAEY

Structure (SMILES): CC(=O)C=O [Methyglyoxal]
- AKR1B10 activity, amount of NADPH (nmol) oxidized per min per mg of protein (AKR1B10 [1]): 7458 nmol/min/mg
- AKR1B1 activity, amount of NADPH (nmol) oxidized per min per mg of protein (AKR1B1 [2]): 942 nmol/min/mg

Structure (SMILES): CC(=O)C(C)=O [Diacetyl, diacetyl]
- AKR1B10 activity, amount of NADPH (nmol) oxidized per min per mg of protein (AKR1B10 [1]): 2329 nmol/min/mg
- Cytotoxicity of AKR1Bs substrate (cell survival rate) (SW480 cells): more resistant
- Cytotoxicity of AKR1Bs substrate (cell survival rate) (HT29 cells): more resistant
- Efficiency as substrate of AKR1B10 (rate of NADPH depletion) (AKR1B10 [3]): better substrate for AKR1B10 than for AKR1B1; also recorded: best substrate
- Tumor volume (HepG2 tumor xenograft; 80 mg/kg): significantly reduced
- Tumor weight (HepG2 tumor xenograft; 80 mg/kg): significantly reduced
- LD50 [4, 8]: 410 mg/kg BW
- Death Rate ([4]; dose 300 mg/kg BW, i.v., n=8): 0%
- Death/Total ([4]; dose 300 mg/kg BW, i.v., n=8): 0/8
- Death Rate ([4]; dose 360 mg/kg BW, i.v., n=8): 37.5%
- Death/Total ([4]; dose 360 mg/kg BW, i.v., n=8): ⅜
- Death Rate ([4]; dose 432 mg/kg BW, i.v., n=8): 62.5%
- Death/Total ([4]; dose 432 mg/kg BW, i.v., n=8): ⅝
- Death Rate ([4]; dose 518 mg/kg BW, i.v., n=8): 87.5%
- Death/Total ([4]; dose 518 mg/kg BW, i.v., n=8): ⅞
- Death Rate ([4]; dose 622 mg/kg BW, i.v., n=8): 100.0%
- Death/Total ([4]; dose 622 mg/kg BW, i.v., n=8): 8/8
- Cytotoxicity of AKR1Bs substrate (cell survival rate) (CaCo2 cells): dose dependently and preferentially kill
- Cytotoxicity of AKR1Bs substrate (cell survival rate) (HepG2 cells): dose-dependently and preferentially kill
- Cytotoxicity of AKR1Bs substrate (cell survival rate) (HepG2 cells; listed as diacetyl): dose dependently and preferentially kill
- Cytotoxicity of AKR1Bs substrate (cell survival rate) (HCT116 cells): dose dependently and preferentially kill
- Cytotoxicity of AKR1Bs substrate (cell survival rate) (SKOV3 cells): dose-dependently and preferentially kill
- Cytotoxicity of AKR1Bs substrate (cell survival rate) (SKOV3 cells; listed as diacetyl): dose dependently and preferentially kill
- AKR1B1 activity, amount of NADPH (nmol) oxidized per min per mg of protein (AKR1B1 [2]): 725 nmol/min/mg

Structure (SMILES): O=Cc1ccc([N+](=O)[O-])cc1 [p-Nitrobenzaldehyde]
- AKR1B10 activity, amount of NADPH (nmol) oxidized per min per mg of protein (AKR1B10 [1]): 4480 nmol/min/mg
- AKR1B1 activity, amount of NADPH (nmol) oxidized per min per mg of protein (AKR1B1 [2]): 760 nmol/min/mg

Structure (SMILES): O=CC(O)CO (racemic) [Glyceraldehyde, glyceraldehyde]
- AKR1B10 activity, amount of NADPH (nmol) oxidized per min per mg of protein (AKR1B10 [1]): 1853 nmol/min/mg
- Cytotoxicity of AKR1Bs substrate (cell survival rate) (SW480 cells): more resistant
- Cytotoxicity of AKR1Bs substrate (cell survival rate) (HT29 cells): more resistant
- Efficiency as substrate of AKR1B10 (rate of NADPH depletion) (AKR1B10 [3]): excellent substrate
- Tumor volume (HepG2 tumor xenograft; 500 mg/kg): significantly reduced
- Tumor weight (HepG2 tumor xenograft; 500 mg/kg): significantly reduced
- Efficiency as substrate of AKR1B1 (rate of NADPH depletion) (AKR1B1 [5]): excellent substrate
- Efficiency as substrate of AKR1B1 (rate of NADPH depletion) (AKR1B1 [5]; listed as glyceraldehyde): best substrate
- LD50 [4, 8]: greater than 2000 mg/kg BW
- Death Rate ([4]; both, ICR, mouse, in vivo, iv, 1000 mg/kg, 14 days): 0%
- Death Rate ([4]; both, ICR, mouse, in vivo, iv, 2000 mg/kg, 14 days): 0%
- LD50 ([4]; mouse, in vivo, iv): >2000 mg/kg BW
- Cytotoxicity of AKR1Bs substrate (cell survival rate) (CaCo2 cells): dose dependently and preferentially kill
- Cytotoxicity of AKR1Bs substrate (cell survival rate) (HepG2 cells): dose-dependently and preferentially kill; also recorded: dose dependently and preferentially kill; also recorded: most efficient
- Cytotoxicity of AKR1Bs substrate (cell survival rate) (HCT116 cells): dose dependently and preferentially kill
- Cytotoxicity of AKR1Bs substrate (cell survival rate) (SKOV3 cells): dose-dependently and preferentially kill; also recorded: dose dependently and preferentially kill; also recorded: most efficient
- AKR1B1 activity, amount of NADPH (nmol) oxidized per min per mg of protein (AKR1B1 [2]): 1681 nmol/min/mg

Structure (SMILES): CC(C)C[C@H](NC(=O)[C@H](Cc1ccccc1)NC(=O)c1cnccn1)B(O)O [Bortezomib]
- Sensitivity to 2DG after pretreatment (SW480 cells; [9]): significantly more cells were killed by 2DG
- Sensitivity to 2DG after pretreatment (HT29 cells; [9]): significantly more cells were killed by 2DG
- AKR1B10 protein level (western blot) (AKR1B10 [6]; HT29 cells): increased
- AKR1B10 protein level (western blot) (AKR1B10 [6]; SW480 cells): induced only AKR1B1
- AKR1B1 protein level (western blot) (AKR1B1 [7]; HT29 cells): increased
- AKR1B1 protein level (western blot) (AKR1B1 [7]; SW480 cells): induced

Structure (SMILES): CCCCS(=N)(=O)CCC(N)C(=O)O [BSO, L-buthionine-[S,R]-sulfoximine]
- Effect on toxicity of glyceraldehyde and diacetyl (CaCo2 cells; [10]): enhanced the toxicity
- Effect on toxicity of glyceraldehyde and diacetyl (HepG2 cells; [11]): more HepG2 and SKOV3 cells were killed; also recorded: enhanced the toxicity
- Effect on toxicity of glyceraldehyde and diacetyl (HCT116 cells; [10]): enhanced the toxicity
- Effect on toxicity of glyceraldehyde and diacetyl (SKOV3 cells; [11]): more HepG2 and SKOV3 cells were killed; also recorded: enhanced the toxicity
